Assay results from patent US9540691B2, “Assays and methods for selecting a treatment regimen for a subject with depression” (THE GENERAL HOSPITAL CORPORATION, priority 2011, dated 2017).
Like-named read-outs stand apart in the source and are kept apart here.

Assays:
[1] = system: patients with major depressive disorder (MDD) resistant to treatment with SSRIs
Description: (§1) Documentation of the presence of any side effect or adverse event is completed at every visit using the SAFTEE-SI. Subjects can contact a clinician at any time between visits concerning adverse events or worsening of symptoms. Suicidal ideation is assessed at each visit. Subjects who are felt by the study clinician to be at high risk for suicide are discontinued from the study and referred for hospitalization and further treatment if clinically indicated (See Tables 4 & 5 below).
(§2) One-way analysis of variance can be used to assess differences in total number of SAFTEE-SI AEs between baseline and endpoint.

[2] = system: patients with major depressive disorder (MDD) resistant to treatment with SSRIs; remark: listed apart in the source
Description: as §1, §2
The study involved the enrollment of a total of 148 patients with MDD over the course of 12 months across 10 medical centers or hospitals in the United States. […] In accordance with the sequential parallel design, the 60-day, double-blind treatment was divided into two phases of 30 days each, with assessments performed every 10 days. […] For those randomly assigned to the placebo/placebo sequence, both responders and non-responders to placebo during the first phase remained on placebo during the second phase.

[3] = L-methylfolate 15 mg (n = 42) with SSRI
[4] = L-methylfolate 15 mg vs placebo
[5] = L-methylfolate 7.5 mg (n = 24) with SSRI
[6] = L-methylfolate 7.5 mg vs placebo
[7] = L-methylfolate 16 mg (n = 30) with SSRI
[8] = L-methylfolate 16 mg vs placebo

## CN1c2c(nc(N)[nH]c2=O)NC[C@@H]1CNc1ccc(C(=O)N[C@@H](CCC(=O)O)C(=O)O)cc1 [6(S)-5-MTHF, 6(S)-5-methyltetrahydrofolate]
[1]; [3]
  Cardiovascular side effects, Frequency (%): (0%)
  Cardiovascular side effects, Frequency (number of subjects): 0
  Gastrointestinal side effects, Frequency (number of subjects): 7
  Infectious side effects, Frequency (number of subjects): 5
  Miscellaneous side effects, Frequency (%): (2.4%)
  Miscellaneous side effects, Frequency (number of subjects): 1
  Psychological side effects, Frequency (%): (9.5%)
  Psychological side effects, Frequency (number of subjects): 4
  Sexual side effects, Frequency (%): (2.4%)
  Sexual side effects, Frequency (number of subjects): 1
  Sleep side effects, Frequency (%): (2.4%)
  Sleep side effects, Frequency (number of subjects): 1
  Somatic side effects, Frequency (number of subjects): 6
[1]; [4]
  Cardiovascular side effects, NNH: =placebo
  Gastrointestinal side effects, NNH: 53
  Infectious side effects, NNH: <placebo
  Miscellaneous side effects, NNH: <placebo
  Psychological side effects, NNH: <placebo
  Sexual side effects, NNH: 98
  Sleep side effects, NNH: <placebo
  Somatic side effects, NNH: <placebo
[1]; SSRI + 15 mg/day
  number of adverse events by SAFTEE-SI vs placebo (in words): no significant differences
[1]; Trial 2, FIG. 3E
  discontinuation from the study due to overall adverse side-effects or exclusion events (in words): no difference
[2]; [5]
  Cardiovascular side effects, Frequency (%): 0 (0%)
  Gastrointestinal side effects, Frequency (%): 9 (9.8%)
  Infectious side effects, Frequency (%): 6 (6.4%)
  Miscellaneous side effects, Frequency (%): 1 (1.1%)
  Paychological [sic] side effects, Frequency (%): 2 (2.1%)
  Sexual side effects, Frequency (%): 0 (0%)
  Sleep side effects, Frequency (%): 3 (3.2%)
  Somatic side effects, Frequency (%): 9 (8.6%)
[2]; [6]
  Cardiovascular side effects, NNH: < placebo
  Gastrointestinal side effects, NNH: < placebo
  Infectious side effects, NNH: < placebo
  Miscellaneous side effects, NNH: < placebo
  Paychological [sic] side effects, NNH: < placebo
  Sexual side effects, NNH: =placebo
  Sleep side effects, NNH: < placebo
  Somatic side effects, NNH: < placebo
[2]; [7]
  Cardiovascular side effects, Frequency (%): 2 (6.7%)
  Gastrointestinal side effects, Frequency (%): 3 (10.0%)
  Infectious side effects, Frequency (%): 2 (6.7%)
  Miscellaneous side effects, Frequency (%): 2 (6.7%)
  Paychological [sic] side effects, Frequency (%): 2 (6.7%)
  Sexual side effects, Frequency (%): 0 (0%)
  Sleep side effects, Frequency (%): 2 (6.7%)
  Somatic side effects, Frequency (%): 3 (10.0%)
[2]; [8]
  Cardiovascular side effects, NNH: < placebo
  Gastrointestinal side effects, NNH: < placebo
  Infectious side effects, NNH: < placebo
  Miscellaneous side effects, NNH: < placebo
  Paychological [sic] side effects, NNH: < placebo
  Sexual side effects, NNH: =placebo
  Sleep side effects, NNH: < placebo
  Somatic side effects, NNH: < placebo
[2]; Trial 1
  adverse side effect when administered with an SSRI (in words): does not appear to cause any adverse side effect
